The values below come from US8642601B2, “Inhibitors of JNK” (Roche Palo Alto LLC, priority 2010, dated 2014).

One data set relates to T1, JNK.
T1 construct: Human JNK2α2 assay contains 1 nM enzyme; Human JNK1α1 assay contains 2 nM enzyme
The experiment in a line: JNK Assay in vitro (phosphorylation of GST-ATF2 (19-96) with [γ-33P] ATP). The format is biochemical. To be noted: JNK isoform not stated for Table 1 (method describes human JNK1α1, JNK2α2, JNK3); Km concentrations of ATP and substrate. Here is the method:
JNK activity was measured by phosphorylation of GST-ATF2 (19-96) with [γ-^33P] ATP. The enzyme reaction was conducted at Km concentrations of ATP and the substrate at final volume of 40 μl in buffer containing 25 mM HEPES, pH 7.5, 2 mM dithiothreitol, 150 mM NaCl, 20 mM MgCl2, 0.001% Tween® 20, 0.1% BSA and 10% DMSO. Human JNK2α2 assay contains 1 nM enzyme, 1 μM ATF2, 8 μM ATP with 1 uCi [γ-^33P] ATP. Human JNK1α1 assay contains 2 nM enzyme, 1 μM ATF2, 6 μM ATP with 1 μCi [γ-^33P] ATP. Human JNK3 (Upstate Biotech #14-501M) assay contains 2 nM enzyme, 1 μM ATF2, 4 μM ATP with 1 μCi [γ-^33P] ATP. The enzyme assay was carried out in the presence or absence of several compound concentrations. JNK and compound were pre-incubated for 10 min., followed by initiation of the enzymatic reaction by adding ATP and the substrate. The reaction mixture was incubated at 30° C. for 30 min. At the end of incubation, the reaction was terminated by transferring 25 μl of the reaction mixture to 150 μl of 10% glutathione Sepharose® slurry (Amersham #27-4574-01) containing 135 mM EDTA. The reaction product was captured on the affinity resin, and washed on a filtration plate (Millipore, MABVNOB50) with phosphate buffered saline for six times to remove free radionucleotide. The incorporation of ^33P into ATF2 was quantified on a microplate scintillation counter (Packard Topcount). Compound inhibition potency on JNK was measured by IC50 value generated from ten concentration inhibition curves fitted into the 3-parameter model: % inhibition=Maximum/(1+(IC50/[Inhibitor])^slope). Data were analyzed on Microsoft Excel for parameter estimation.

On to `CS(=O)(=O)CCCOc1cccc2c1ccn2-c1ccnc(N[C@H]2CC[C@H](C(=O)N3CCC[C@H](C(=O)O)C3)CC2)n1` [Compound 4, (S)-1-(4-{4-[4-(3-Methanesulfonyl-propoxy)-indol-1-yl]-pyrimidin-2-ylamino}-cyclohexanecarbonyl)-piperidine-3-carboxylic acid], for which the melting point was 270 to 276 °C. The molecule also registered an IC50 with JNK of 107 nM.

Regarding `CS(=O)(=O)CCCOc1cccc2c1ccn2-c1ccnc(N[C@H]2CC[C@H](C(=O)N3CCC(C(N)=O)CC3)CC2)n1` [Compound 5, 1-(4-{4-[4-(3-Methanesulfonyl-propoxy)-indol-1-yl]-pyrimidin-2-ylamino}-cyclohexanecarbonyl)-piperidine-4-carboxylic acid amide], the melting point was 219 to 221 °C. The molecule further came in with a half-inhibitory concentration (IC50) in the data set on JNK of 91.7 nM.

For `CC(C)(O)C1CCN(C(=O)[C@H]2CC[C@H](Nc3nccc(-n4ccc5c(OCCCS(C)(=O)=O)cccc54)n3)CC2)CC1` [Compound 6, [4-(1-Hydroxy-1-methyl-ethyl)-piperidin-1-yl]-(4-{4-[4-(3-methanesulfonyl-propoxy)-indol-1-yl]-pyrimidin-2-ylamino}-cyclohexyl)-methanone], the melting point lay within 196 to 198 °C. In addition, the midpoint of inhibition in the data set with JNK, the IC50, lay at 86 nM.

In turn, `CCOC(=O)C1CCN(C(=O)[C@H]2CC[C@H](Nc3nccc(-n4ccc5c(OCC6CCS(=O)(=O)C6)cccc54)n3)CC2)CC1` (stereo partly drawn) [Compound 7, 1-(4-{4-[4-(1,1-Dioxo-tetrahydro-1λ^6-thiophen-3-ylmethoxy)-indol-1-yl]-pyrimidin-2-ylamino}-cyclohexanecarbonyl)-piperidine-4-carboxylic acid ethyl ester] displayed a melting point of 209 to 211 °C. For the same molecule, in the data set on JNK, the IC50 stood at 51.4 nM.

As for `O=C(O)C1CCN(C(=O)[C@H]2CC[C@H](Nc3nccc(-n4ccc5c(OCC6CCS(=O)(=O)C6)cccc54)n3)CC2)CC1` (stereo partly drawn) [Compound 8, 1-(4-{4-[4-(1,1-Dioxo-tetrahydro-1λ^6-thiophen-3-ylmethoxy)-indol-1-yl]-pyrimidin-2-ylamino}-cyclohexanecarbonyl)-piperidine-4-carboxylic acid], the melting point is 172 to 174 °C. This molecule also gave a concentration for half-maximal inhibition (IC50) with JNK of 70.8 nM.

Turning to `CCOC(=O)C1(C)CCN(C(=O)[C@H]2CC[C@H](Nc3nccc(-n4ccc5c(OCCCS(C)(=O)=O)cccc54)n3)CC2)CC1` [Compound 10, 1-(4-{4-[4-(3-Methanesulfonyl-propoxy)-indol-1-yl]-pyrimidin-2-ylamino}-cyclohexanecarbonyl)-4-methyl-piperidine-4-carboxylic acid ethyl ester], the melting point was in the range of 171 to 173 °C. Also, in the data set on JNK, the IC50 stood at 58.4 nM.

In the case of `CCN1CC[C@@H](NC(=O)[C@H]2CC[C@H](Nc3nccc(-n4ccc5c(OCCCS(C)(=O)=O)cccc54)n3)CC2)C1` [Compound 12, 4-{4-[4-(3-Methanesulfonyl-propoxy)-indol-1-yl]-pyrimidin-2-ylamino}-cyclohexanecarboxylic acid ((R)-1-ethyl-pyrrolidin-3-yl)-amide], the melting point fell in the range of 229 to 231 °C. This molecule came in with an IC50 in the data set on JNK of 93.8 nM.

`CCCN1CCC[C@@H](NC(=O)[C@H]2CC[C@H](Nc3nccc(-n4ccc5c(OCCCS(C)(=O)=O)cccc54)n3)CC2)C1` [Compound 16, 4-{4-[4-(3-Methanesuflonyl-propoxy)-indol-1-yl]-pyrimidin-2-ylamino}-cyclohexanecarboxylic acid ((S)-1-propyl-piperidin-3-yl)-amide] came in with a melting point of 185 to 190 °C. Also, it took 163 nM to reach half-maximal inhibition with JNK (IC50).

For `CC1(C(=O)O)CCN(C(=O)[C@H]2CC[C@H](Nc3nccc(-n4ccc5c(OCCCS(C)(=O)=O)cccc54)n3)CC2)CC1` [Compound 18, 1-(4-{4-[4-(3-Methanesulfonyl-propoxy)-indol-1-yl]-pyrimidin-2-ylamino}-cyclohexanecarbonyl)-4-methyl-piperidine-4-carboxylic acid], the melting point amounted to 174 °C. Half-maximal inhibition with JNK (IC50) required 153 nM.

By IC50 is commonly meant the concentration at which inhibition is half-maximal. In general, melting point refers to the temperature, or range, at which the solid turns liquid.
